# Results taken from article PMC6680226, “Peptoid Efficacy against Polymicrobial Biofilms Determined by Using Propidium Monoazide‐Modified Quantitative PCR” (Chembiochem, 2016).
# Experiments:
# [1] = test system: S. aureus monospecies biofilm; assay: PMA-qPCR viable cell number, S. aureus monospecies biofilm; assay type: cell-based, Staphylococcus aureus; conditions: peptoid 100 μM, 24 h; n=3
# Description: (§1) Preparation and treatment of single‐species biofilms: Overnight cultures of C. albicans were washed and resuspended (1.0×10^6 cells per mL) in RPMI‐1640 (Sigma–Aldrich). Overnight cultures of S. aureus or E. coli were washed and resuspended (5.0×10^6 cells per mL) in BHI broth. Samples (100 μL) were added to microtitre plate wells (Thermo Fisher Scientific), and a biofilm was allowed to form for 4 h. Wells were washed with PBS (3×200 μL) to facilitate removal of planktonic cells, and the biofilms were then treated with 1–18 (100 μM in the appropriate medium). Plates were incubated for a further 24 h to allow biofilm maturation. After removal of planktonic cells by washing, biofilms were quantified by the crystal violet assay or by PMA‐qPCR.
# (§2) Biofilm quantification by PMA‐modified qPCR: In order to determine the bactericidal and fungicidal activity of peptoids against single‐species and polymicrobial biofilms, the biofilms were detached from the microtitre plate wells prior to quantification. The wells were washed as above, then BHI broth (100 μL) was added and the plate was sealed. […]
# (§3) Generation of standard curves for PMA‐qPCR: For quantification of C. albicans, S. aureus and E. coli in single‐species and polymicrobial biofilms, DNA standards were prepared by extraction of DNA from planktonic organisms with the microLYSIS‐Plus kit and purification with a DNeasy kit (Qiagen). […]
# [2] = test system: C. albicans in polymicrobial biofilm with S. aureus; assay: PMA-qPCR, C. albicans within C. albicans-S. aureus polymicrobial biofilm; assay type: cell-based, Candida albicans
# Description: (§4) Preparation and treatment of polymicrobial biofilms: Overnight cultures of C. albicans were prepared in microtitre plates as above, and allowed to adhere for 4 h to facilitate initial biofilm formation. Planktonic C. albicans cells were removed as above before the addition of S. aureus or E. coli (100 μL, 5.0×10^6 cells per mL). Bacteria were allowed to adhere to the C. albicans biofilms for 4 h to facilitate polymicrobial biofilm formation. Following a washing step, the biofilms were then treated with peptoid (10–100 μM), and incubated for a further 24 h to allow biofilm maturation. Wells were washed as above, and the polymicrobial biofilms were quantified by PMA‐modified qPCR.
# as §2, with “sealed. Biofilm detachment was achieved by sonication for 5 min in an ultrasonic bath (Dawe, Hayes, Middlesex, UK). The remaining cells were then collected in BHI (80 μL).” for “sealed.”
# (§5) Generation of standard curves for PMA‐qPCR: For quantification of C. albicans, S. aureus and E. coli in single‐species and polymicrobial biofilms, DNA standards were prepared by extraction of DNA from planktonic organisms with the microLYSIS‐Plus kit and purification with a DNeasy kit (Qiagen). DNA standards (10^1–10^6 cells) were used in PMA‐qPCR assays to generate standard curves from which the numbers of living organisms within the biofilms could be determined.
# [3] = test system: S. aureus in polymicrobial biofilm with C. albicans; assay: PMA-qPCR, S. aureus within C. albicans-S. aureus polymicrobial biofilm; assay type: cell-based, Staphylococcus aureus; conditions: PMA-qPCR
# Description: as §4
# Biofilm quantification by PMA‐modified qPCR: In order to determine the bactericidal and fungicidal activity of peptoids against single‐species and polymicrobial biofilms, the biofilms were detached from the microtitre plate wells prior to quantification. The wells were washed as above, then BHI broth (100 μL) was added and the plate was sealed. Biofilm detachment was achieved by sonication for 5 min in an ultrasonic bath (Dawe, Hayes, Middlesex, UK). The remaining cells were then collected in BHI (80 μL). PMA (20 μL, 2 mM in broth;47 Biotium, Fremont, CA) was added to the biofilm suspensions […] and incubated (37 °C, 5 min) prior to photoactivation with a broad‐spectrum LED flood light (60 LED, 0.1 W) placed 15 cm from the tubes (mixed by inversion during the 20 min photoactivation step).48 DNA was extracted by using a microLYSIS‐Plus kit (Microzone, Haywards Heath, UK), and qPCR was performed in a Mx3005P qPCR System (Agilent Technologies).49, 50, 51 See the Tables in the Supporting Information.
# as §5
# [4] = test system: E. coli (ATCC 29522) biofilm; assay: Crystal violet assay, E. coli monospecies biofilm; assay type: cell-based, Escherichia coli; conditions: peptoid 100 μM, 24 h treatment of 4 h biofilm; n=3
# Description: (§6) Microorganism strains and growth conditions: C. albicans (NCTC 3179) was subcultured aerobically on Sabouraud agar plates, prepared by using Sabouraud dextrose powder and agar (Oxoid, ThermoFisher) and propagated in yeast peptone dextrose broth. E. coli (ATCC 29522) and S. aureus (NCTC 6571) were grown on blood agar plates (Fanin, Dublin, Ireland) and propagated in brain heart infusion (BHI) broth (Oxoid, ThermoFisher).
# as §1
# (§7) Biofilm quantification by crystal violet assay: Washed biofilms were fixed with methanol (100 μL) for 10 min. Following removal of methanol, the wells were air dried and stained with crystal violet solution (Clin‐Tech, Guildford, UK) for 20 min at room temperature. Excess stain was removed by washing, then the plate was air‐dried and bound crystal violet was re‐solubilised in acetic acid (33 %, 160 μL) prior to reading at 570 nm in a GENios microtitre plate reader (Tecan, Zürich, Switzerland).
# [5] = test system: C. albicans (NCTC 3179) biofilm; assay: Crystal violet assay, C. albicans monospecies biofilm; assay type: cell-based, Candida albicans; conditions: peptoid 100 μM, 24 h treatment of 4 h biofilm; n=3
# Description: as §6, §1, §7
# [6] = test system: C. albicans monospecies biofilm; assay: PMA-qPCR viable cell number, C. albicans monospecies biofilm; assay type: cell-based, Candida albicans; conditions: peptoid 100 μM, 24 h; n=3
# Description: as §1
# as §2, with “sealed. Biofilm detachment was achieved by sonication for 5 min in an ultrasonic bath (Dawe, Hayes, Middlesex, UK). The remaining cells were then collected in BHI (80 μL).” for “sealed.”
# as §5
# [7] = test system: E. coli in polymicrobial biofilm with C. albicans; assay: PMA-qPCR, E. coli within C. albicans-E. coli polymicrobial biofilm; assay type: cell-based, Escherichia coli
# Description: as §4, §2, §3
# [8] = test system: C. albicans in polymicrobial biofilm with E. coli; assay: PMA-qPCR, C. albicans within C. albicans-E. coli polymicrobial biofilm; assay type: cell-based, Candida albicans
# Description: as §4, §2, §3
# [9] = test system: S. aureus (NCTC 6571) biofilm; assay: Crystal violet assay, S. aureus monospecies biofilm; assay type: cell-based, Staphylococcus aureus; conditions: peptoid 100 μM, 24 h treatment of 4 h biofilm; n=3
# Description: as §6, §1, §7
# [10] = test system: E. coli monospecies biofilm; assay: PMA-qPCR viable cell number, E. coli monospecies biofilm; assay type: cell-based, Escherichia coli; conditions: peptoid 100 μM, 24 h; n=3
# Description: as §1
# as §2, with “sealed. Biofilm detachment was achieved by sonication for 5 min in an ultrasonic bath (Dawe, Hayes, Middlesex, UK). The remaining cells were then collected in BHI (80 μL).” for “sealed.”
# as §5
# [11] = test system: HepG2; assay: alamarBlue cytotoxicity assay, HepG2 cells
# Description: (§8) Peptoid cytotoxicity studies: All 18 peptoids were tested for cytotoxicity against HepG2 epithelial (Sigma–Aldrich) and HaCaT keratinocyte (ThermoFisher) cell lines, Cytotoxicity analyses were performed in Costar 96‐well plates (Thermo Fisher Scientific) with alamarBlue (Invitrogen/Thermo Fisher Scientific) for cell viability detection as described by the manufacturer. HepG2 and HaCaT cells were grown at 37 °C under CO2 (5 %) in DMEM (high glucose) supplemented with heat‐inactivated foetal bovine sera (FBS, 10 %; Biosera, Uckfield, UK) and penicillin/streptomycin (1 %). Cells were counted in a Neubauer Improved Haemocytometer. HepG2 or HaCaT cells were seeded 24 h prior to treatment in 96‐well plates (2×10^4 cells per well in 100 μL). After 24 h, cells were incubated in triplicate with a dilution series of compound (2–100 μM from 5 mM stock solutions in DMSO) in the medium (50 μL) for 1 h. An aliquot (40 μL) was removed from each well, before the addition of medium (90 μL) followed by incubation for 24 h (37 °C, 5 % CO2). Then, alamarBlue (10 μL) was added to each well before incubation (2 h for Hep G2, 1 h for HaCaT) prior to assessing cell viability in a fluorescent plate reader (Biotek, Winooski, VT; λ ex=560 nm, λ em=600 nm). All data were measured in triplicate on a minimum of two occasions.
# (§9) Toxicity was determined using an alamarBlue® cytotoxicity assay.
# [12] = test system: HaCaT; assay: alamarBlue cytotoxicity assay, HaCaT keratinocytes
# Description: as §8, §9
# [13] = alamarBlue viability, 2-100 μM from DMSO stock, 1 h with compound then 24 h incubation at 37 °C, fluorescence, triplicate on a minimum of two occasions
substance,measurement,setting,value
(NahNspeNspe)3 [Peptoid 17],"Reduction in viable cell number, S. aureus monospecies biofilm (PMA-qPCR)",[1],approximately two orders of magnitude
same,Reduction in C. albicans cell number in mixed biofilm with S. aureus (PMA-qPCR),"[2]; peptoid 100 μM, 24 h, n=3",less susceptible
same,"Reduction in C. albicans cell numbers in cross-kingdom biofilm with S. aureus, concentration series","[2]; peptoid 10-100 μM, PMA-qPCR",the greatest reduction in cell numbers
same,Reduction of cell numbers of S. aureus in mixed-species biofilm,"[3]; peptoid 10 μM, 24 h",~100%
same,"Reduction in S. aureus cell numbers in cross-kingdom biofilm, concentration series",[3]; peptoid 10-100 μM,the greatest reduction in cell numbers
same,"Efficacy against E. coli monospecies biofilm (biomass, crystal violet)",[4],amongst the most efficacious
same,"Efficacy against C. albicans monospecies biofilm (biomass, crystal violet)",[5],amongst the most efficacious
same,"Reduction in viable cell number, C. albicans monospecies biofilm (PMA-qPCR)",[6],still caused a significant reduction in the fungal biofilm
same,Reduction in E. coli cell number in mixed biofilm with C. albicans (PMA-qPCR),"[7]; peptoid 100 μM, 24 h, n=3",the most active
same,"Reduction in E. coli cell numbers in cross-kingdom biofilm, concentration series","[7]; peptoid 10-100 μM, PMA-qPCR",the greatest reduction in cell numbers
same,Reduction in C. albicans cell number in mixed biofilm with E. coli (PMA-qPCR),"[8]; peptoid 100 μM, 24 h, n=3",the most active
same,"Reduction in C. albicans cell numbers in cross-kingdom biofilm with E. coli, concentration series","[8]; peptoid 10-100 μM, PMA-qPCR",the greatest reduction in cell numbers
same,"Efficacy against S. aureus monospecies biofilm (biomass, crystal violet)",[9],amongst the most efficacious
same,"Reduction in viable cell number, E. coli monospecies biofilm (PMA-qPCR)",[10],the most effective
same,ED50 HepG2,[11]; [13],> 100 µM
same,Toxicity to HepG2 cells (in words),"[11]; alamarBlue, up to 100 μM",negligible toxicity
same,ED50 HaCaT,[12]; [13],> 100 µM
same,Toxicity to HaCaT cells (in words),"[12]; alamarBlue, up to 100 μM",negligible toxicity
